Laboratory results from US8163756B2 (priority 2004, dated 2012).
Structures can show the parent of a compound that is named as a salt. Where two headings read alike, the source gives them in different places.

How the values were obtained:
Format in all cases: biochemical
Abl kinase = target: T1, Abl kinase (Homo sapiens, UniProt P00519); experiment: Abl kinase assay A1 (pyruvate kinase/lactate dehydrogenase coupled, spectrophotometric)
T1 sequence (P00519 229-512): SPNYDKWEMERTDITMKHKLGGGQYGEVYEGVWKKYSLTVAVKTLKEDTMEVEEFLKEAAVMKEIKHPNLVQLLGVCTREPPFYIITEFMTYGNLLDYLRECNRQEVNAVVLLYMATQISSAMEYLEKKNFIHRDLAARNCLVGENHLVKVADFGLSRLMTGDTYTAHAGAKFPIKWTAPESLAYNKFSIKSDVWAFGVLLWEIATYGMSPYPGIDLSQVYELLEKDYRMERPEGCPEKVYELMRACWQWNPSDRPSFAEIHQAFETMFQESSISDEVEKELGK
Description: (§1) IC50 values were calculated from a series of percent inhibition values determined at a range of inhibitor concentrations using software routines as implemented in the GraphPad Prism software package.

B-Raf(V599E) kinase = B-Raf(V599E) kinase (Homo sapiens, UniProt P15056, V600E); experiment: B-Raf(V599E) kinase assay B1 (construct 1, MEK1 substrate, coupled spectrophotometric)
B-Raf(V599E) kinase, sequence (P15056 with tags, fused parts or gaps V600E): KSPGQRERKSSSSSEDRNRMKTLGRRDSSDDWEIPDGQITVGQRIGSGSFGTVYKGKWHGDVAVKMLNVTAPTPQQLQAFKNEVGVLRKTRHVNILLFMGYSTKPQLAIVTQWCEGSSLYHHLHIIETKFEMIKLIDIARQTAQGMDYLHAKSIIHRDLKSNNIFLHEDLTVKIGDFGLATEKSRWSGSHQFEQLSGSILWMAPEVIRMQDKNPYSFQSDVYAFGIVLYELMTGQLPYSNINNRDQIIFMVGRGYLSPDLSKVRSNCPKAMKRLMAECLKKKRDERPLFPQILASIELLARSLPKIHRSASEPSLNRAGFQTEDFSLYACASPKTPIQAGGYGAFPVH
Description: The test compounds were incubated with the reaction mixtureat 30° C. for 2 h. […] The reaction rate was calculated using the […] time frame. […] IC50 values were calculated from a series of percent inhibition values determined at a range of inhibitor concentrations using software routines as implemented in the GraphPad Prism software package.

[1] = target: phosphorylated p-38-alpha kinase (Homo sapiens, UniProt Q16539); experiment: P-38 alpha kinase assay P1 (coupled spectrophotometric, 2 h pre-incubation)
phosphorylated p-38-alpha kinase, sequence (Q16539 1-360 isoform Q16539-2): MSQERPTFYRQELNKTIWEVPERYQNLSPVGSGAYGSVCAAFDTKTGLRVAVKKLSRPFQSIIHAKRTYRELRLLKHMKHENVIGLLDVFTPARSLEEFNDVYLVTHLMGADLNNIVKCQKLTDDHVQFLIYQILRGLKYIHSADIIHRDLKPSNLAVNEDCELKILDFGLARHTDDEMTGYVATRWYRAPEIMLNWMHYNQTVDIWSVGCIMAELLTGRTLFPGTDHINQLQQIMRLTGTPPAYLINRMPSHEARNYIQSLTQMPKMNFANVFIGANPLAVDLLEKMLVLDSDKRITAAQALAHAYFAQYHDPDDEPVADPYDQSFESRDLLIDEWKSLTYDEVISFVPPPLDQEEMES

KDR kinase = KDR kinase (Homo sapiens, UniProt P35968, DEL940-989/E990V); experiment: KDR kinase assay K1 (pyruvate kinase/lactate dehydrogenase coupled, spectrophotometric)
KDR kinase, sequence (P35968 with tags, fused parts or gaps DEL940-989/E990V): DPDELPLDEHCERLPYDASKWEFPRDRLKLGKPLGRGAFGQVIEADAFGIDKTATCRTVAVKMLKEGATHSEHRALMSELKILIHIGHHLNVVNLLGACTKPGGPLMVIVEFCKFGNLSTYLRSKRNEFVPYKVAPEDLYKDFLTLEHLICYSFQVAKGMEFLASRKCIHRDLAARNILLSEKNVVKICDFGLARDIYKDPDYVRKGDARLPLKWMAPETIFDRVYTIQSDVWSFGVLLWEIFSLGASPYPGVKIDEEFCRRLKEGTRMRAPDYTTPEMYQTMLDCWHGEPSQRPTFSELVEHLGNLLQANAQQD
Description: as §1

[2] = Method A1, read-out: Abl Data (IC50)
[3] = method P1 (2 h pre-incubation), read-out: P-38 Data
[4] = Method K1, read-out: KDR Data (IC50)

Compound	IC50 (Abl kinase; [2]) [nM]	IC50 (B-Raf(V599E) kinase) [nM]	IC50 [1, 3] [nM]	IC50 (KDR kinase; [4]) [nM]	IC50 (Abl kinase) [nM]	IC50 [1] [nM]	IC50 (KDR kinase) [nM]
CC(C)(C)c1cc(NC(=O)Nc2cccc(Cl)c2Cl)n(-c2cc(CN)c3ccccc3c2)n1 [Example 69, 1-[1-(4-(aminomethyl)naphthalen-2-yl)-3-t-butyl-1H-pyrazol-5-yl]-3-(2,3-dichlorophenyl)urea]	140	4.2	110	400			
CC(C)(C)c1cc(NC(=O)Nc2cccc(Cl)c2Cl)n(-c2ccc3c(c2)CCCN3C(=N)N)n1 [Example 136, 1-[3-t-butyl-1-(1-amidino-1,2,3,4-tetrahydroquinolin-6-yl]-1H-pyrazol-5-yl)-3-(2,3-dichlorophenyl)urea]	100	4.9	130	29			
CC(C)(C)c1cc(NC(=O)Nc2cccc(Oc3ccccc3)c2)n(-c2ccc3c(c2)CCNC3)n1 [Example 140, 1-(3-t-butyl-1-(1,2,3,4-tetrahydro-isoquinolin-6-yl)-1H-pyrazol-5-yl)-3-(3-phenoxyphenyl)urea]	120	4.6		2300			
CC(C)(C)c1cc(NC(=O)Nc2cccc(Cl)c2Cl)n(-c2cc(CO)c3ccccc3c2)n1 [Example 60, 1-[5-t-butyl-2-(4-hydroxymethylnaphthalen-2-yl)-2H-pyrazol-3-yl]-3-(2,3-dichloro-phenyl)urea]	63	2.6	18	62			
CC(C)(C)c1cc(NC(=O)Nc2cc(F)cc(F)c2F)n(-c2ccc3c(c2)CCN3S(C)(=O)=O)n1 [Example 109, 1-(3-t-butyl-1-(1-(methylsulfonyl)indolin-5-yl)-1H-pyrazol-5-yl)-3-(2,3,5-trifluorophenyl)urea]	140	2.7		38			
CC(C)(C)c1cc(NC(=O)Nc2ccc(Cl)cc2)n(-c2cc(CO)c3ccccc3c2)n1 [Example 61]	810	18		1500			
CC(C)(C)c1cc(NC(=O)Nc2cccc(Cl)c2Cl)n(-c2ccc3c(c2)NCC3)n1 [Example 112, 1-(3-t-butyl-1-(indolin-6-yl)-1H-pyrazol-5-yl)-3-(2,3-dichlorophenyl)urea]	480	2.9	12	210			
CC(C)(C)c1cc(NC(=O)Nc2cccc(Cl)c2Cl)n(-c2ccc3c(c2)CCNC3=O)n1 [Example 137, 1-(3-t-butyl-1-(1-oxo-1,2,3,4-tetrahydroisoquinolin-6-yl)-1H-pyrazol-5-yl)-3-(2,3-dichloro-phenyl)urea]	150	2.5	55	1000			
CC(C)(C)c1cc(NC(=O)Nc2cccc(Cl)c2Cl)n(-c2ccc3c(c2)CCN(S(C)(=O)=O)C3)n1 [Example 154, 1-(3-t-butyl-1-(2-(methylsulfonyl)-1,2,3,4-tetrahydroisoquinolin-6-yl)-1H-pyrazol-5-yl)-3-(2,3-dichlorophenyl)urea]	270	2.9	12	92			
COc1cccc(-n2nc(C(C)(C)C)cc2NC(=O)Nc2cccc(Cl)c2Cl)c1 [Example 15, 1-(3-t-butyl-1-(3-methoxyphenyl)-1H-pyrazol-5-yl)-3-(2,3-dichlorophenyl)urea]	390	3.3		81			
CC(C)(C)c1cc(NC(=O)Nc2cccc(Cl)c2Cl)n(-c2ccc3c(c2)CCC(=O)N3)n1 [Example 131, 1-[3-t-butyl-1-(2-oxo-1,2,3,4-tetrahydroquinolin-6-yl)-1H-pyrazol-5-yl]-3-(2,3-dichlorophenyl)urea]	280	1.9	33	77			
CC(C)(C)c1cc(NC(=O)Nc2cccc(Cl)c2Cl)n(-c2cccc(CCN)c2)n1 [Example 39, 1-{1-[3-(2-aminoethyl)phenyl]-3-t-butyl-1H-pyrazol-5-yl}-3-(2,3-dichlorophenyl)urea]	350	7.1		240			
CC(C)(C)c1cc(NC(=O)Nc2cccc(Cl)c2Cl)n(-c2cccc(CO)c2)n1 [Example 1, 1-[3-t-butyl-1-(3-hydroxymethyl-phenyl)-1H-pyrazol-5-yl]-3-(2,3-dichlorophenyl)urea]	310	4.6	11	130			
CC(C)(C)c1cc(NC(=O)Nc2cccc(Cl)c2Cl)n(-c2ccc3c(c2)CCNCC3)n1 [Example 166, 1-(3-t-butyl-1-(2,3,4,5-tetrahydro-1H-benzo[d]azepin-7-yl)-1 H-pyrazol-5-yl)-3-(2,3-dichlorophenyl)urea]	230	5.7	61	210			
CC(C)(C)c1cc(NC(=O)Nc2cccc(Cl)c2Cl)n(-c2cccc(CCO)c2)n1 [Example 24, 1-{3-t-butyl-1-[3-(2-hydroxyethyl)phenyl]-1H-pyrazol-5-yl}-3-(2,3-dichlorophenyl)urea]	830	2.3	11	380			
CC(C)(C)c1cc(NC(=O)Nc2cccc(Cl)c2Cl)n(-c2cccc(CN)c2)n1 [Example 42, 1-{1-[3-(aminomethyl)phenyl]-3-t-butyl-1H-pyrazol-5-yl}-3-(2,3-dichloro-phenyl)urea]	1500	10		360			
CC(C)(C)c1cc(NC(=O)Nc2cccc(Cl)c2Cl)n(-c2ccc3c(c2)C(=O)NCC3)n1 [Example 122, 1-[3-t-butyl-1-(1-oxo-1,2,3,4-tetrahydroisoquinolin-7-yl)-1H-pyrazol-5-yl]-3-(2,3-di-chlorophenyl)urea]	2800	11	130	1400			
CC(=O)N1CCc2ccc(-n3nc(C(C)(C)C)cc3NC(=O)Nc3cccc(Cl)c3Cl)cc2C1 [Example 126, 1-[1-(2-acetyl-1,2,3,4-tetrahydroisoquinolin-7-yl)-3-t-butyl-1H-pyrazol-5-yl]-3-(2,3-dichlorophenyl)urea]	440	6.5	10	210			
CC(C)(C)c1cc(NC(=O)Nc2cccc(Cl)c2Cl)n(-c2cc(CNC(=O)NS(C)(=O)=O)c3ccccc3c2)n1 [Example 75, 1-{3-t-butyl-1-[1-(methanesulfonylureidoamidomethyl)naphthalen-3-yl]-1H-pyrazol-5-yl}-3-(2,3-dichlorophenyl-1-yl)urea]	63	4.2	6	140			
CC(C)(C)c1cc(NC(=O)Nc2cccc(Cl)c2Cl)n(-c2ccc3c(c2)CCCN3)n1 [Example 135, 1-[3-t-butyl-1-(1,2,3,4-tetrahydroquinolin-6-yl)-1H-pyrazol-5-yl]-3-(2,3-dichlorophenyl)urea hydrochloride]		4.5			840	44	270
CC(C)(C)c1cc(NC(=O)Nc2cccc(Cl)c2Cl)n(-c2cccc(C#N)c2)n1 [Example 9]	180	4.6		47			
CC(C)(C)c1cc(NC(=O)Nc2cccc(Cl)c2Cl)n(-c2ccc3c(c2)C[C@@H](C(=O)O)NC3)n1 [Example 186, (3S)-6-(3-t-butyl-5-(3-(2,3-dichlorophenyl)ureido)-1H-pyrazol-1-yl)-1,2,3,4-tetrahydroisoquinoline-3-carboxylic acid]	60	9.2	50	900			
CC(C)(C)c1cc(NC(=O)Nc2cccc(Cl)c2Cl)n(-c2cccc(CCC(=O)O)c2)n1 [Example 46, 3-(3-{3-t-Butyl-5-[3-(2,3-dichloro-phenyl)ureido]-1H-pyrazol-1-yl}-phenyl)propionic acid]	2500	3.3	6	170			
CN(C)CCc1cccc(-n2nc(C(C)(C)C)cc2NC(=O)Nc2cccc(Cl)c2Cl)c1 [Example 40, 1-(3-t-butyl-1-{3-[2-(dimethylamino)ethyl]phenyl}-1H-pyrazol-5-yl)-3-(2,3-di-chlorophenyl)urea]	570	8.7		470			
CC(C)(C)c1cc(NC(=O)Nc2ccc(Oc3ccccc3)cc2)n(-c2ccc3c(c2)CCNC3)n1 [Example 143, 1-(3-t-butyl-1-(1,2,3,4-tetrahydroiso-quinolin-6-yl)-1H-pyrazol-5-yl)-3-(4-phenoxyphenyl)-urea]	250	14		940			
CNC(=O)[C@@H]1Cc2ccc(-n3nc(C(C)(C)C)cc3NC(=O)Nc3cccc(Cl)c3Cl)cc2CN1 [Example 187, 1-(3-t-butyl-1-((3S)-3-(methylcarbamoyl)-1,2,3,4-tetrahydroisoquinolin-7-yl)-1H-pyrazol-5-yl)-3 (2,3-dichlorophenyl)urea]	560	3		150			
CC(C)(C)c1cc(NC(=O)Nc2cccc(Cl)c2Cl)n(-c2ccc(CO)cc2)n1 [Example 19, 1-{3-t-butyl-1-[4-(hydroxymethyl)-phenyl]-1H-pyrazol-5-yl}-3-(2,3-dichlorophenyl)urea]	620	4.8		710			
